Data as given in patent US20260217697A1, “COMPOUNDS COMPRISING HETEROARYL RINGS AND COMPOSITIONS AND METHODS THEREOF” (lonGen Therapeutics Co., Ltd., priority 2022, published 2026).

These compounds were tested against T1, hTRPV3 (Homo sapiens, UniProt Q8NET8) (assay: Whole-cell patch-clamp recording of hTRPV3 current in transfected HEK293T cells (2-APB induced)). Conditions: current induced by 300 μM 2-APB, compounds tested up to 10 μM, room temperature.
T1 construct: The commercially available plasmid with the full-length cDNA of hTRPV3 (791 aa) (NM_001258205.2); host or cells: HEK293T
T1 sequence (Q8NET8 1-791 isoform Q8NET8-2): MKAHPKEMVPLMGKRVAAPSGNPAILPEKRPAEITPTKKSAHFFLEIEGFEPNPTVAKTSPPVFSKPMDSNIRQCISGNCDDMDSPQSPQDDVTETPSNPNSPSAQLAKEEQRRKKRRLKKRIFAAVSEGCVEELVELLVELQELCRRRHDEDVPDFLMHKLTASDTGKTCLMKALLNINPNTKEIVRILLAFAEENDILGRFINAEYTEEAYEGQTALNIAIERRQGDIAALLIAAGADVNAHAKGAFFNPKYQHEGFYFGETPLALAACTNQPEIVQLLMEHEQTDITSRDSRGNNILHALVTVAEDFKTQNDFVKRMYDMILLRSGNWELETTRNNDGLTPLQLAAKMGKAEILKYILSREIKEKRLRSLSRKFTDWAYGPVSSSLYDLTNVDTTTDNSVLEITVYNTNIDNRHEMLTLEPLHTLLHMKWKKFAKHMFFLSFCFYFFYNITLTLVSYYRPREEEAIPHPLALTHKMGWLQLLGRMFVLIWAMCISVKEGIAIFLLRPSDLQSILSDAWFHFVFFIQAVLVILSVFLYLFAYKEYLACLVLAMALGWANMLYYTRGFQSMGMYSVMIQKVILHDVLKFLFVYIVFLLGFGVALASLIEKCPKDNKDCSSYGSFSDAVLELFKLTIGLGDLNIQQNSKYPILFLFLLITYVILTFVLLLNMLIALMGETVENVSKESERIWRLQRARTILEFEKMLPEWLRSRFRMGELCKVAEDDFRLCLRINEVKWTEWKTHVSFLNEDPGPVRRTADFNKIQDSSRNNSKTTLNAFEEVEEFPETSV
Assay type: cell-based
Method in brief: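 IC50 comes from Hill fits, 0–100% bounds, of percent block of 2-APB-induced current, with compounds perfused at up to 10 μM. Currents elicited at +80/−80 mV (400-ms steps, 2-s interval, 0 mV hold), room temperature, symmetric NaCl/EDTA/HEPES pH 7.4 solutions. Cells: hTRPV3-transfected HEK293T, used 18 h after transfection.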

Row | SMILES | IC50 [µM]
1 | COc1ncnc(OC)c1C(=O)Nc1nc2c(s1)c(=O)oc1cc(C(F)(F)F)ccc12 [compound 9, 4,6-dimethoxy-N-(4-oxo-7-(trifluoromethyl)-4H-chromeno[4,3-d]thiazol-2-yl)pyrimidine-5-carboxamide] | ≥ 10
2 | COc1ncnc(OC)c1C(=O)Nc1nc2c(s1)C1(COC1)Oc1cc(C(C)(C)O)ccc1-2 [compound 139, N-(7-(2-hydroxypropan-2-yl)spiro[chromeno[4,3-d]thiazole-4,3′-oxetan]-2-yl)-4,6-dimethoxypyrimidine-5-carboxamide] | ≥ 10
3 | COc1ncnc(OC)c1C(=O)Nc1nc2c(s1)C1(Oc3cc(C(F)(F)F)ccc3-2)C2CC3CC(C2)CC1C3 (stereo not shown) [compound 20, 4,6-dimethoxy-N-(7′-(trifluoromethyl)spiro[adamantane-2,4′-chromeno[4,3-d]thiazol]-2′-yl)pyrimidine-5-carboxamide] | 0.1 to 1
4 | C=CCN1c2cc(C(F)(F)F)ccc2-c2nc(NC(=O)c3c(OC)ncnc3OC)sc2C1(C)C [compound 88, N-(5-allyl-4,4-dimethyl-7-(trifluoromethyl)-4,5-dihydrothiazolo[5,4-c]quinolin-2-yl)-4,6-dimethoxypyrimidine-5-carboxamide] | 0.1 to 1
5 | [2H]C([2H])([2H])Oc1ncnc(OC([2H])([2H])[2H])c1C(=O)Nc1nc2c(s1)C(CC)(CC)Oc1cc(C(F)(F)F)ccc1-2 [compound 97, N-(4,4-diethyl-7-(trifluoromethyl)-4H-chromeno[4,3-d]thiazol-2-yl)-4,6-bis(methoxy-d3)pyrimidine-5-carboxamide] | 0.1 to 1
6 | COc1ncnc(OC)c1C(=O)Nc1nc2c(s1)C1(CCC(C(C)(C)C)CC1)Oc1cc(C(F)(F)F)ccc1-2 (stereo not shown) [compound 18, N-(4′-(tert-butyl)-7-(trifluoromethyl)spiro[chromeno[4,3-d]thiazole-4,1′-cyclohexan]-2-yl)-4,6-dimethoxypyrimidine-5-carboxamide] | 1 to 10
7 | CCC1(CC)Oc2cc(C)ccc2-c2nc(NC(=O)c3c(OC)ncnc3OC)sc21 [compound 124, N-(4,4-diethyl-7-methyl-4H-chromeno[4,3-d]thiazol-2-yl)-4,6-dimethoxypyrimidine-5-carboxamide] | 0.1 to 1
8 | COc1ncnc(OC)c1C(=O)Nc1nc2c(s1)C1(CN(C3COC3)C1)Oc1cc(C(F)(F)F)ccc1-2 [compound 160, 4,6-dimethoxy-N-(1-(oxetan-3-yl)-7′-(trifluoromethyl)spiro[azetidine-3,4′-chromeno[4,3-d]thiazol]-2′-yl)pyrimidine-5-carboxamide] | 0.1 to 1
9 | CCC1(CC)Oc2cc(C(F)F)ccc2-c2nc(NC(=O)c3c(OC)ncnc3OC)sc21 [compound 105, N-(7-(difluoromethyl)-4,4-diethyl-4H-chromeno[4,3-d]thiazol-2-yl)-4,6-dimethoxypyrimidine-5-carboxamide] | 0.1 to 1
10 | COc1ncnc(OC)c1C(=O)Nc1nc2c(s1)COc1cccc(C(F)(F)F)c1-2 [compound 99, 4,6-dimethoxy-N-(9-(trifluoromethyl)-4H-chromeno[4,3-d]thiazol-2-yl)pyrimidine-5-carboxamide] | ≥ 10
11 | COc1ncnc(OC)c1C(=O)Nc1nc2c(s1)C1(COC1)Oc1cc(Br)ccc1-2 [compound 134, N-(7-bromospiro[chromeno[4,3-d]thiazole-4,3′-oxetan]-2-yl)-4,6-dimethoxypyrimidine-5-carboxamide] | 0.1 to 1
12 | COc1ncnc(OC)c1C(=O)Nc1nc2c(s1)C1(CN(C(=O)OC(C)(C)C)C1)Oc1cc(C(F)(F)F)ccc1-2 [compound 63, tert-butyl 2′-(4,6-dimethoxypyrimidine-5-carboxamido)-7′-(trifluoromethyl)spiro[azetidine-3,4′-chromeno[4,3-d]thiazole]-1-carboxylate] | < 0.1
13 | COc1ncnc(OC)c1C(=O)Nc1nc2c(s1)CCc1ccccc1-2 [compound 2, N-(4,5-dihydronaphtho[1,2-d]thiazol-2-yl)-4,6-dimethoxypyrimidine-5-carboxamide] | ≥ 10
14 | COc1ncnc(OC)c1C(=O)Nc1nc2c(s1)C1(CCC(C(=O)N(C)C(C)C)CC1)Oc1cc(C(F)(F)F)ccc1-2 (stereo not shown) [compound 127, 2-(4,6-dimethoxypyrimidine-5-carboxamido)-N-isopropyl-N-methyl-7-(trifluoromethyl)spiro[chromeno[4,3-d]thiazole-4,1′-cyclohexane]-4′-carboxamide] | 0.1 to 1
15 | COc1ncnc(OC)c1C(=O)Nc1nc2c(s1)C1(COC1)Oc1cc(C#N)ccc1-2 [compound 137, N-(7-cyanospiro[chromeno[4,3-d]thiazole-4,3′-oxetan]-2-yl)-4,6-dimethoxypyrimidine-5-carboxamide] | ≥ 10
16 | COc1ncnc(OC)c1C(=O)Nc1nc2c(s1)C1(CCC(F)(F)CC1)Oc1cc(C(F)(F)F)ccc1-2 [compound 40, N-(4′,4′-difluoro-7-(trifluoromethyl)spiro[chromeno[4,3-d]thiazole-4,1′-cyclohexan]-2-yl)-4,6-dimethoxypyrimidine-5-carboxamide] | 0.1 to 1
17 | COc1ncnc(OC)c1C(=O)Nc1nc2c(s1)COc1c-2cccc1C(F)(F)F [compound 15, 4,6-dimethoxy-N-(6-(trifluoromethyl)-4H-chromeno[4,3-d]thiazol-2-yl)pyrimidine-5-carboxamide] | ≥ 10
18 | COc1ccc2c(c1)OCc1sc(NC(=O)c3c(OC)ncnc3OC)nc1-2 [compound 11, 4,6-dimethoxy-N-(7-methoxy-4H-chromeno[4,3-d]thiazol-2-yl)pyrimidine-5-carboxamide] | ≥ 10

Continued, values first:

Row | IC50 [µM] | SMILES
19 | 1 to 10 | COc1ncnc(OC)c1C(=O)Nc1nc2c(s1)C(CO)(CO)Oc1cc(C(F)(F)F)ccc1-2 [compound 113, N-(4,4-bis(hydroxymethyl)-7-(trifluoromethyl)-4H-chromeno[4,3-d]thiazol-2-yl)-4,6-dimethoxypyrimidine-5-carboxamide]
20 | < 0.1 | C=CCCC1(C)Oc2cc(C(F)(F)F)ccc2-c2nc(NC(=O)c3c(OC)ncnc3OC)sc21 (stereo not shown) [compound 44, N-(4-(but-3-en-1-yl)-4-methyl-7-(trifluoromethyl)-4H-chromeno[4,3-d]thiazol-2-yl)-4,6-dimethoxypyrimidine-5-carboxamide]
21 | 0.1 to 1 | COc1ncnc(OC)c1C(=O)Nc1nc2c(s1)COc1cc(C(F)(F)F)ccc1-2 [compound 1, 4,6-dimethoxy-N-(7-(trifluoromethyl)-4H-chromeno[4,3-d]thiazol-2-yl)pyrimidine-5-carboxamide]
22 | < 0.1 | COc1ncnc(OC)c1C(=O)Nc1nc2c(s1)C1(CN(C(C)C)C1)Oc1cc(C(F)(F)F)ccc1-2 [compound 136, N-(1-isopropyl-7′-(trifluoromethyl)spiro[azetidine-3,4′-chromeno[4,3-d]thiazol]-2′-yl)-4,6-dimethoxypyrimidine-5-carboxamide]
23 | 0.1 to 1 | COc1ncnc(OC)c1C(=O)Nc1nc2c(s1)C(C)(CCc1ccccc1)Oc1cc(C(F)(F)F)ccc1-2 (stereo not shown) [compound 42, 4,6-dimethoxy-N-(4-methyl-4-phenethyl-7-(trifluoromethyl)-4H-chromeno[4,3-d]thiazol-2-yl)pyrimidine-5-carboxamide]
24 | 0.1 to 1 | COc1ncnc(OC)c1C(=O)Nc1nc2c(s1)C1(CCC(C)CC1)Oc1cc(C(F)(F)F)ccc1-2 (stereo not shown) [compound 33, 4,6-dimethoxy-N-(4′-methyl-7-(trifluoromethyl)spiro[chromeno[4,3-d]thiazole-4,1′-cyclohexan]-2-yl)pyrimidine-5-carboxamide]
25 | < 0.1 | CCOC(=O)C1CC2(C1)Oc1cc(C(F)(F)F)ccc1-c1nc(NC(=O)c3c(OC)ncnc3OC)sc12 (stereo not shown) [compound 133, ethyl 2-(4,6-dimethoxypyrimidine-5-carboxamido)-7-(trifluoromethyl)spiro[chromeno[4,3-d]thiazole-4,1′-cyclobutane]-3′-carboxylate]
26 | 0.1 to 1 | COc1ncnc(OC)c1C(=O)Nc1nc2c(s1)C1(CCCCCC1)Oc1cc(C(F)(F)F)ccc1-2 [compound 26, 4,6-dimethoxy-N-(7-(trifluoromethyl)spiro[chromeno[4,3-d]thiazole-4,1′-cycloheptan]-2-yl)pyrimidine-5-carboxamide]
27 | < 0.1 | COc1ncnc(OC)c1C(=O)Nc1nc2c(s1)C1(CN(CC(C)C)C1)Oc1cc(C(F)(F)F)ccc1-2 [compound 150, N-(1-isobutyl-7′-(trifluoromethyl)spiro[azetidine-3,4′-chromeno[4,3-d]thiazol]-2′-yl)-4,6-dimethoxypyrimidine-5-carboxamide]
28 | ≥ 10 | COc1ncnc(OC)c1C(=O)Nc1nc2c(s1)C1(CN(CC(=O)O)C1)Oc1cc(C(F)(F)F)ccc1-2 [compound 165]
